Assay results as given in PMC8546149, “Antibiotic-chemoattractants enhance neutrophil clearance of Staphylococcus aureus” (Nature Communications, 2021).
≈ marks a conversion by molar mass, not a printed value. Where “and” joins values, the source holds several entries; their conditions need not be identical. Equal values may be shown once. Non-standard residues stand in square brackets, D forms with d. No end group written: not given here. *: point of attachment. Pra = C#CC[C@H](N)C(=O)O; For = O=C*

T1: formyl peptide receptor 1 (FPR1) (human, UniProt P21462 1-350)
T1 sequence (looked up): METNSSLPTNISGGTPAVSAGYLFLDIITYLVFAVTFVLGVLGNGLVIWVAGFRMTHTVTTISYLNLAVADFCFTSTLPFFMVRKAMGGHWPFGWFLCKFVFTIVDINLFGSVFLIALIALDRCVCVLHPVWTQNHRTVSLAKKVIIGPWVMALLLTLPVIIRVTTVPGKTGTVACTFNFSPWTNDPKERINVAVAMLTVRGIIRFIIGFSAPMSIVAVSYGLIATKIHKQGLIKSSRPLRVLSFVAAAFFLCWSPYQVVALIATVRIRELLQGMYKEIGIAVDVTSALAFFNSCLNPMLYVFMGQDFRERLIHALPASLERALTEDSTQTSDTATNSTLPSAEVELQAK

B1: fMLFG = van (fMLFG conjugated to the C-terminus of vancomycin, no PEG linker) (peptide)
peptide: For-MLFG[Pra]
modifications: also: C-terminal propargylglycine linked by click (triazole) to azide-modified vancomycin carboxyl group

Experiments:
S. aureus = assay: Antimicrobial microbroth dilution assay (growth, MIC); type: cell-based; conditions: Staphylococcus aureus, 20 h, 90% growth inhibition at 20 h, ±SD, n=4
Protocol: All bacterial isolates used in this study are listed in Supplementary Table 1. The American Type Culture Collection strain (ATCC 29213) and S. aureus strains were cultured onto brain heart infusion (BHI) agar (BD) or into broth (BD) and grown at 37 °C with shaking. S. aureus was grown in cation adjusted Muller Hinton Broth II (CAMHB, Becton Dickson) for testing. All bacterial strains were stored in glycerol broth at −80 °C.
Antimicrobial activity of the antibiotic-chemoattractants was determined as per the Clinical and Laboratory Standards Institute guidelines for microbroth dilution assays. Compounds stocks were prepared as two-fold serial dilution at 10x stock concentration required (final concentration of DMSO 0.5%). Growth of the S. aureus (5 × 10^5 CFU/mL in CAMHB) was monitored in 96-well flat bottom polypropylene microtiter plates (Greiner) covered with BreatheEasy membranes (Diversified Biotech) and absorbance of each well was measured at 595 nm every 4 h for 24 h (Clariostar plate reader, software v5.20R5, BMG). The percentage growth was calculated relative to the no compound control and the average of three biological replicates plotted using GraphPad Prism 9 software. The minimum inhibitory concentration was determined by the lowest drug concentration that inhibited bacterial growth to 90% compared to the 0 μM control.

[1] = Mouse pneumonia model, lung histology (alveoli space, nuclei); type: in vivo; parameters: Area of lung: unit not given here; conditions: each line is an individual value, listed as Van
Protocol: For pathology assessment, excised lungs from one mouse for each of the treatment group was fixed in 10% buffered formalin before undergoing routine histological processing (Monash University Histology Platform). Lungs were embedded in paraffin, cut into 5 µm thick sections and stained with hematoxylin and eosin. Tissue pathology was assessed by a veterinary pathologist (Dr Mark Williamson, Gribbles Veterinary Pathology, Clayton, Australia).
The loss of alveoli structure was quantified in the H&E sections by determining the area of white space in six FOV (1.8 × 1.2 mm) in the outer lobes of the lung (threshold of 0–240). In addition, the number of nuclei in these FOV were also determined. This was performed by isolating nuclei in the image (threshold of 0–130) and then using the analyze particle function (particles 80–4000, circularity 0.05–1) in FIJI[36] to count the number of nuclei detected. Data were plotted using GraphPad Prism 8 software.

human neutrophils = assay: Transwell chemotaxis assay; type: cell-based; conditions: any of the concentrations tested (1-1000 nM)
Protocol: For neutrophils used in transwell assays whole blood was collected in the presence of EDTA, under approval from Monash University Human Research Ethics Committee (project #9572) with written informed consent from healthy human donors; donors were de-identified.
The chemotaxis assay was performed in a 96-transwell plate with 3 µm pores (Corning). The plate was prepared by adding 200 μL of peptide in chemotaxis buffer (4 mM L-glutamine, 0.5% Human Serum Albumin, Sigma, 49% Roswell Park Memorial Institute (RPMI) 1640, 49% Hank’s buffered salt solution, ThermoFisher) into the bottom receiving wells at a final peptide concentration of 1, 10, 100, and 1000 nM (0.02% DMSO). The negative control of 0.02% DMSO was used. The top of the transwell plate was loaded with 200,000 neutrophils in 75 μL chemotaxis buffer. The plate was incubated in the dark at 37 °C with 5% CO2 for 1.5 h. […] Elastase activity was used as an indicator of neutrophil numbers and was measured by adding the chromogenic elastase substrate N-methoxysuccinyl-Ala-Ala-Pro-Val-p-nitroanilide (Sigma) at a final concentration of 1 mM[35]. After 30 min at room temperature, the absorbance at 405 nm was determined using a microplate reader (Clariostar plate reader, BMG). […]

S. aureus (SH1000-GFP) = assay: Infection-on-a-chip S. aureus growth (GFP area) with neutrophils; type: cell-based, Staphylococcus aureus
Protocol: Use of this microfluidic device for monitoring migration of neutrophils and control of the S. aureus growth in cell culture medium has been outlined in detail previously. Briefly, microfluidic devices were primed with S. aureus (SH1000-GFP, 1 × 10^6/mL) in culture media (Iscove’s Modified Dulbecco’s Medium + 10% Fetal Bovine Serum) by loading the outer chamber and applying vacuum to draw bacteria into the inner chambers. The outer chamber was then washed by pushing 200 µL of media through the device using a pipette, and loaded with neutrophils (5.5 × 10^6/mL, stained with Hoechst 33342 dye, 10 min at 32 μM). Additionally, neutrophil phagocytosis was monitored by using pHrodo Red S. aureus BioParticles® (Life Technologies) in replace of live S. aureus cells. […] The concentration of cells were determined by hemocytometer.
Kinetics of neutrophil migration, S. aureus growth and phagocytosis was determined using imaging with an automated Nikon Eclipse TiE inverted wide-field microscope with stage control and perfect focus system run through the Nikon NIS element v4. […] The percentage of neutrophils recruited into the chamber was determined relative to the total number of neutrophils in each FOV divided by the number of chambers visible. […] The pHrodo or S. aureus GFP fluorescence within the microchamber was calculated by thresholding the image and measuring the area in FIJI[36]. […]

[2] = molecular target: T1, formyl peptide receptor 1 (FPR1); assay: cell-based or functional assay

Row | Molecule | MIC (S. aureus; A8819 (daptomycin susceptible, ST105)) | MIC (S. aureus; ATCC 29213 / MSSA, ATCC 29213 (MSSA)) | MIC (S. aureus; MRSA, A5937 (MRSA, ST5)) | MIC (S. aureus; MRSA, A5948 (MRSA, ST8)) | MIC (S. aureus; MRSA, A6300 (MRSA, ST5)) | MIC (S. aureus; MRSA, A8090 (MRSA, ST5)) | MIC (S. aureus; MRSA, A9719 (MRSA, ST5)) | MIC (S. aureus; MRSA, A9754 (MRSA, ST8)) | MIC (S. aureus; MSSA, A9635 (MSSA, ST1892)) | Area of lung [1] | Nuclei [1] | neutrophil recruitment (in words) (human neutrophils) | growth inhibition of S. aureus by neutrophils in the microfluidic assay (S. aureus (SH1000-GFP)) | ERK1/2 phosphorylation at 5 min in CHO cells overexpressing human FPR1, potency of the conjugate against the free peptide (lower potency) [2] | calcium mobilization in CHO cells overexpressing human FPR1, potency of the conjugate against the free peptide (lower potency) [2]
1 | CN[C@H](CC(C)C)C(=O)N[C@H]1C(=O)N[C@@H](CC(N)=O)C(=O)N[C@H]2C(=O)N[C@H]3C(=O)N[C@H](C(=O)N[C@H](C(=O)O)c4cc(O)cc(O)c4-c4cc3ccc4O)[C@H](O)c3ccc(c(Cl)c3)Oc3cc2cc(c3O[C@@H]2O[C@H](CO)[C@@H](O)[C@H](O)[C@H]2O[C@H]2C[C@](C)(N)[C@H](O)[C@H](C)O2)Oc2ccc(cc2Cl)[C@H]1O [Vancomycin, vancomycin] | 0.8 ± 0.1 µM (≈ 1.16 µg/mL) | 1 ± 0.25 µM (≈ 1.45 µg/mL) | 0.6 ± 0.01 µM (≈ 0.87 µg/mL) | 0.3 ± 0.03 µM (≈ 0.435 µg/mL) | 1 ± 0.2 µM (≈ 1.45 µg/mL) | 0.6 ± 0.01 µM (≈ 0.87 µg/mL) | 1 ± 0.3 µM (≈ 1.45 µg/mL) | 1.1 ± 0.06 µM (≈ 1.59 µg/mL) | 0.6 ± 0.01 µM (≈ 0.87 µg/mL) | 61.3 and 69.7 and 55.1 and 61.6 and 71.0 and 68.4 and 57.8 | 6013 and 1856 and 2087 and 3027 and 4794 and 2455 | no neutrophil recruitment |  |  | 
2 | Van-C(H-MLFG-Tz) [C12] |  |  |  |  |  |  |  |  |  |  |  | no neutrophil recruitment | no observable growth inhibition |  | 
3 | B1 |  |  |  |  |  |  |  |  |  |  |  |  |  | 10 fold | > 90 fold
